Experiment [1] deals with T1, Pancreatic triacylglycerol lipase (Homo sapiens) (UniProt P16233).
T1 sequence (whole entry): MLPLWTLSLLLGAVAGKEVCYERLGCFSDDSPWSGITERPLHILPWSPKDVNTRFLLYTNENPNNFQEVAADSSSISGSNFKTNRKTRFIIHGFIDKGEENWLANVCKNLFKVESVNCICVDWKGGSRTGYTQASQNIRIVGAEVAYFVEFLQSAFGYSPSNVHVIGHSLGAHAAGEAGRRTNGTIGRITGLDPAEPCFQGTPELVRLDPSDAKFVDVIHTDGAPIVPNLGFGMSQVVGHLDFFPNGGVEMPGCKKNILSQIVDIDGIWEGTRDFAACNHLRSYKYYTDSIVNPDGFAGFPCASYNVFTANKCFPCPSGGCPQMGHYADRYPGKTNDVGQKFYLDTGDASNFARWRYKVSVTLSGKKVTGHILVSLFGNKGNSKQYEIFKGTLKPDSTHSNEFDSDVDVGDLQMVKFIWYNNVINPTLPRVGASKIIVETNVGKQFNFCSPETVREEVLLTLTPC
Description: Inhibition of pancreatic lipase assessed as effect on oleic acid release from triolein at 0.12 mg/mL relative to control.

Experiment [2] addresses T1, Pancreatic triacylglycerol lipase (Homo sapiens). Description: Inhibition of pancreatic lipase assessed as effect on oleic acid release from triolein relative to control.
Experiment [3] shares this target. Description: Inhibition of pancreatic lipase assessed as effect on oleic acid release from triolein at 1 mg/mL relative to control.
Experiment [4] shares this target. Description: Inhibition of pancreatic lipase assessed as effect on oleic acid release from triolein at 0.005 mg/mL relative to control.

Calls of active or inactive are those of the source. The rule behind the calls is not given here.

On to `C[C@@H]1O[C@@H](O[C@H]2[C@H](O[C@H]3CC[C@]4(C)[C@H]5CC=C6[C@@H]7CC(C)(C)CC[C@]7(C(=O)O)CC[C@@]6(C)[C@]5(C)CC[C@H]4C3(C)C)OC[C@H](O)[C@@H]2O)[C@H](O)[C@H](O[C@@H]2OC[C@@H](O[C@@H]3O[C@H](CO)[C@@H](O)[C@H](O)[C@H]3O)[C@H](O)[C@H]2O)[C@H]1O`, for which the outcome in experiment [1] and in experiment [2] was Active.

Turning to `C[C@@H]1O[C@@H](O[C@H]2[C@H](O[C@H]3CC[C@]4(C)[C@H]5CC=C6[C@@H]7CC(C)(C)CC[C@]7(C(=O)O[C@@H]7O[C@H](CO[C@@H]8O[C@H](CO)[C@@H](O)[C@H](O)[C@H]8O)[C@@H](O)[C@H](O)[C@H]7O)CC[C@@]6(C)[C@]5(C)CC[C@H]4C3(C)C)OC[C@@H](O)[C@@H]2O)[C@H](O)[C@H](O[C@@H]2OC[C@@H](O[C@@H]3O[C@H](CO)[C@@H](O)[C@H](O)[C@H]3O)[C@H](O)[C@H]2O)[C@H]1O`, the result in experiment [3] was Active.

For the compound `CCCCCCCCCCC[C@@H](C[C@@H]1OC(=O)[C@H]1CCCCCC)OC(=O)[C@H](CC(C)C)NC=O`, the result in experiment [4] was Active.

Turning to `C[C@@H]1O[C@@H](O[C@H]2[C@H](O[C@H]3CC[C@]4(C)[C@H]5CC=C6[C@H]7[C@](C(=O)O[C@@H]8O[C@H](CO[C@@H]9O[C@H](CO)[C@@H](O)[C@H](O)[C@H]9O)[C@@H](O)[C@H](O)[C@H]8O)(CC[C@@H](C)[C@@]7(C)O)CC[C@@]6(C)[C@]5(C)CC[C@H]4C3(C)C)OC[C@H](O)[C@@H]2O)[C@H](O)[C@H](O[C@@H]2O[C@H](CO)[C@@H](O)[C@H](O)[C@H]2O)[C@H]1O`, the result in experiment [3] was Active.

Take `C[C@@H]1O[C@@H](O[C@H]2[C@H](O[C@H]3CC[C@]4(C)[C@H]5CC=C6[C@@H]7CC(C)(C)CC[C@]7(C(=O)O[C@@H]7O[C@H](CO[C@@H]8O[C@H](CO)[C@@H](O)[C@H](O)[C@H]8O)[C@@H](O)[C@H](O)[C@H]7O)CC[C@@]6(C)[C@]5(C)CC[C@H]4C3(C)C)OC[C@@H](O)[C@@H]2O)[C@H](O)[C@H](O[C@@H]2OC[C@@H](O)[C@H](O)[C@H]2O)[C@H]1O`: the result in experiment [3] was Active.

As to `C[C@@H]1O[C@@H](O[C@H]2[C@H](O[C@H]3CC[C@]4(C)[C@H]5CC=C6[C@@H]7CC(C)(C)CC[C@]7(C(=O)O[C@@H]7O[C@H](CO[C@@H]8O[C@H](CO)[C@@H](O)[C@H](O)[C@H]8O)[C@@H](O)[C@H](O)[C@H]7O)CC[C@@]6(C)[C@]5(C)CC[C@H]4C3(C)C)OC[C@@H](O)[C@@H]2O)[C@H](O)[C@H](O[C@@H]2O[C@H](CO)[C@@H](O[C@@H]3O[C@H](CO)[C@@H](O)[C@H](O)[C@H]3O)[C@H](O)[C@H]2O)[C@H]1O`, in experiment [3], the outcome was Active.

As for `C[C@@H]1O[C@@H](O[C@H]2[C@H](O[C@H]3CC[C@]4(C)[C@H]5CC=C6[C@@H]7CC(C)(C)CC[C@]7(C(=O)O[C@@H]7O[C@H](CO[C@@H]8O[C@H](CO)[C@@H](O)[C@H](O)[C@H]8O)[C@@H](O)[C@H](O)[C@H]7O)CC[C@@]6(C)[C@]5(C)CC[C@H]4C3(C)C)OC[C@@H](O)[C@@H]2O)[C@H](O)[C@H](O[C@@H]2O[C@H](CO)[C@@H](O)[C@H](O)[C@H]2O)[C@H]1O`, in experiment [3], the result was Active.

Consider `C[C@@H]1O[C@@H](O[C@H]2[C@H](O[C@H]3CC[C@]4(C)[C@H]5CC=C6[C@@H]7CC(C)(C)CC[C@]7(C(=O)O[C@@H]7O[C@H](CO[C@@H]8O[C@H](CO)[C@@H](O)[C@H](O)[C@H]8O)[C@@H](O)[C@H](O)[C@H]7O)CC[C@@]6(C)[C@]5(C)CC[C@H]4C3(C)C)OC[C@@H](O)[C@@H]2O)[C@H](O)[C@H](O[C@@H]2OC[C@@H](O[C@@H]3O[C@H](CO)[C@@H](O[C@@H]4OC[C@@H](O)[C@H](O)[C@H]4O)[C@H](O)[C@H]3O)[C@H](O)[C@H]2O)[C@H]1O`, for which the result in experiment [3] was Active.

Source of the values: ChEMBL document CHEMBL1151171, “New biologically active triterpenoid saponins from Scabiosa tschiliensis” (J Nat Prod, 2004).
